Legend:
[1] = tested on: Caucasian patients with schizophrenia (CATIE); experiment: Genetic association (linear regression, additive model) of SNP alleles with MMRM-modelled change in PANSS Total Score under antipsychotic treatment, CATIE trial; type: in vivo, human; settings: rs1315115, located in an intron of NPAS3
Protocol: For the CATIE study, individual cases were diagnosed as having SZ based on DSM-III/IV criteria. Treatment response for all patients was assessed using the Positive and Negative Syndrome Scale (PANSS) (Kay et al., 1987; Kay et al., 1989; Leucht et al., 2005). […] To avoid possible bias in post hoc selection of a treatment response variable, the inventors used the mixed model repeated measures (MMRM) approach developed by van den Oord and coworkers (van den Oord et al., 2009). […] The design of the CATIE study, including details of consent for genetic analyses, has been described in detail by others (Lieberman et al., 2005; Stroup et al., 2003; Sullivan et al., 2008). Only retrospective genetic analyses, judged to be exempt from human studies requirements by an IRB, were conducted in the current study. Consented DNA samples were obtained from the Rutgers University Cell and DNA Repository in collaboration with […]. […] All of these patients self-reported as having exclusively European ancestry. […] Genotyping was performed on a fee for service basis according to Illumina's standard operating procedures. Raw intensity files were processed using Illumina® BeadStudio version 1.7.4 software. […] Only two of these had been previously genotyped in the CATIE sample. […] To allow comparison to previously published PGx findings for CATIE and to avoid possible bias in post-hoc selection of a treatment response variable, the inventors used the mixed model repeated measures (MMRM) approach developed by Van den Oord and coworkers (van den Oord et al., 2009; […] et al., 2011). Briefly, this method models random effects by introducing random slopes for treatment effects, allowing treatment effects to be different across subjects. The MMRM approach serves to increase the statistical power to detect genetic associations by increasing the precision in measuring change in PANSS Total Score (PANSS-T) by accounting for variance due to baseline PANSS-T, and treatment, as well as smoothing out the random fluctuations in PANSS-T between visits due to various uncontrolled variables. […] Bozeman, Mont.). Quantile-Quantile (QQ) plots were prepared using the R statistical package version 2.14.1. For comparison purposes, original CATIE-provided SNP genotypes in specific genes were evaluated using the same genetic analysis. Haplotype association integrating newly generated and original genotypes for specific regions was carried out in SVS using haplotype blocks predefined by Haploview software. […] For each of the SNPs listed the reference SNP (rs) number is provided, which provides the known sequence context for the given SNP (see, e.g., National Center for Biotechnology Information (NCBI) SNP database available on the world wide web at ncbi.nlm.nih.gov/snp).

[2] = tested on: Caucasian patients with schizophrenia (CATIE); settings: SNPs in NPAS3; Lavedan et al., 2009; cited from earlier work

| Compound | association of SNP with response [1] | association of SNPs with response [2] |
| --- | --- | --- |
| Cc1nc2n(c(=O)c1CCN1CCC(c3noc4cc(F)ccc34)CC1)CCCC2 [Risperidone, risperidone] | associated with response |  |
| COc1cc(C(C)=O)ccc1OCCCN1CCC(c2noc3cc(F)ccc23)CC1 [iloperidone] |  | association of SNPs in NPAS3 with response |

Reference: patent US20160122821A1, “GENETIC MARKERS OF ANTIPSYCHOTIC RESPONSE” (SUREGENE, LLC, priority 2013, published 2016)
